Results as given in patent US20100004171A1, “Therapeutic Methods for Neuropathic Pain” (priority 2006, published 2010).
Where no end group is shown, it is not given here.

Experiments:
NMDA receptors = settings: cited from earlier work; for effect on hyperalgesia and allodynia: given systemically and locally; for doses at which the effects are seen: reported by some researchers
rodents = settings: rodents, dose of 6 mmol/kg; cited from earlier work
[1] = system: tactile allodynia in allodynic rats; assay: Tactile allodynia test (von Frey filaments, paw withdrawal threshold) in CCI (Bennett model) rats; type: in vivo, rat
[2] = system: tactile allodynia in allodynic rats; assay: as above; type: in vivo, rat; settings: for effect on paw-withdrawal threshold: intrathecal 100 nmol in 10 μl in allodynic rats, day 7 after injury, up to 8 hr
Source text: Bennett Model: In this model, approximately 0.8 cm of the left sciatic nerve was exposed and freed with sharpened scissors at middle-thigh level as described by Bennett and Xie.^[76] Four ligatures were placed loosely around the sciatic nerve with 4-0 chromic catgut, with 1 mm space between the ties, which compresses the nerve but epineural blood circulation is preserved. The tissue and skin were closed in layers. […] Most allodynia was seen during the time period of 7-14 days after the surgery.
Intrathecal catheter installation: A PE10 catheter, stretched to a somewhat thinner diameter in the distal part, was introduced into the spinal canal (subarachnoid space) via a 21 G (gauge) cannula between the L5 and L6 lamina and advanced to the lumbar enlargement in rats. The proximal part was tunneled under the skin and led out on the upper dorsal region. The location of the catheter was verified by the injection of 6 μl (50 mg/ml) xylocalne, such that a transient, flaccid paralysis of the legs was produced, and by X-ray after administration of 10 μl iodine contrast medium (Astra, Sweden). The catheter could be kept for up to two weeks in animals.^[79]
(§1) The maximum volume injected at any one time was 10 μl.^[79]
Tactile allodynia test: In a transparent glass chamber (20×20 cm) with a mesh net floor, each animal was subjected to the tactile allodynia test. A positive response is when an innocuous tactile stimulus induces a brief paw withdrawal away from the stimulation, similar to a paw withdrawal due to heat. A set of von Frey filaments from 0.01 to 28 g (Stoelting Co., Wood Dale, Ill.) were applied to the mid-paw of the allodynic rats at 1 gram, and then progressing up or down. The filament was pressed against the plantar surface for 1 to 2 seconds until it bent. Subsequent applications were made with a higher or lower von Frey filament depending on the animal response. The testing always began with normal paws. If a filament induced a brief paw withdrawal of a paw without bending in three out of five tests, the size of the filament was recorded as eliciting a positive withdrawal threshold.^[80] Allodynia was considered to be present when a withdrawal threshold was evoked by a filament corresponding to 8 grams or less.
(§2) In rats with tactile allodynia (a withdrawal threshold with a filament below 8 g), an intrathecal catheter (PE 10) was installed and linked to an osmotic pump (Alzet) in a 37° C. water bath. Following a bolus injection of SCP-1 (30 nmol/kg, 10 μl), agrin siRNA (100 nM) was intrathecally administered continuously by the pump at a rate of 5 μl/1 hour for 4 hr. The animals were subjected to von Frey filament test every 15 min for 4 hr to determine whether the effects of SCP-1 on allodynia suppression are blocked by agrin siRNA. A control siRNA (nFsiRNA) was applied in the same way. The behavioral data was analyzed for agrin effects. Immediately after behavioral experiments, the animals were sacrificed and subjected to protein extraction of lumbar spinal cord, followed by Western-blot analysis as described above.
A blind test was designed for intrathecal drug evaluations. Five days after CCI, rats were subjected to tactile allodynia tests with von Frey filaments. If a filament corresponding to 8 grams or less evoked a withdrawal response on the rat paw (at least 3 responses out of 5 stimuli), the value was designated as the allodynia threshold. […] Either a drug (100 nmol in 10 μl saline) or vehicle (only 10 μl saline) was pre-warmed and intrathecally injected into the allodynic rats. Then the rats were assayed for changes in allodynic and hyperalgesic behavior, agrin gene expression, and agrin protein changes. In addition, distribution and amount of agrin in the dorsal horn were visualized using immunostaining of L5 as reported above in Example 7.

[3] = system: thermal hyperalgesia in allodynic rats; assay: Thermal hyperalgesia test (paw withdrawal latency) in CCI (Bennett) rats; type: in vivo, rat
agrin protein [4] = assay: Western blot of agrin protein in L3-5 spinal cord; type: in vivo, rat
Description: Western blot for detecting protein expression of agrin: Agrin protein was analyzed from L3-5 spinal cord with Western blot as described below at times of 1 day, 3 days, and 7 days post-surgery. The changes in these proteins between sham-operated, nerve-injured (no drug), and nerve-injured (pre-emptive drug) groups were analyzed.
Agrin Protein Extraction: The rats were deeply anesthetized with isoflurane and decapitated. Spinal cord L3-5 was quickly removed and immediately placed into tissue lysis buffer (1 ml, Sigma Co., St. Louis, Mo.) that contained protein enzyme inhibitors (1:100, Halt, Pierce). The tissue was homogenized for 2 min and incubated on ice for 45 min. The sample was then centrifuged at 10,000×g for 30 min at 4° C. The supernatant was transferred to a new tube and centrifuged again for further clarifying. The concentration of the protein was determined by an Agilent's Bio-Rad protein chip (Agilent's 2100 bioanalyzer, Santa Clara, Calif.) and by the […] (reagents from Bio-Rad).
(§3) Western blot: Protein (20 μg) from each sample was mixed with 2× electrophoresis buffer and boiled for 5 min. The samples, along with a negative control, were loaded on 4-15% acrylamide tris-glycine SDS gels and electrophoresed in a cell (Bio-Rad) for approximately 1 hr. A Hybond-P polyvinylidene difluoride membrane (Bio-Rad, Hercules, Calif.) was used for transferring the protein in a mini-trans-blot transfer cell (Bio-Rad) for 2 hr. The membrane was then soaked in 2% milk for 1 hour and probed with monoclonal agrin antibody (Agr510 and Agr530, 1:5000, StressGen Biotechnologies Corp., Victoria, Canada) or β-actin antibody (1:5000) at 4° C. overnight with continual shaking. The following day goat anti-mouse secondary antibody conjugated to Alexa Fluor680 (1:5000, Molecular Probe) was added to the membrane and incubated for 1 hr at room temperature. The samples were washed three times with TBS buffer (Tris Buffered Saline, DAKO, Carpinteria, Calif.) between steps. The membrane was then scanned with an Odyssey (LI-COR) scanner and analyzed by Odyssey software (Li-Cor, Lincoln, Nebr.).
as §2, with “Immediately after behavioral experiments, the animals were sacrificed and subjected to protein extraction of lumbar spinal cord, followed by Western-blot analysis as described above.” left out

agrin protein [5] = assay: Rat lumbar spinal tissue culture, agrin protein by Western blot; type: cell-based
Description: (§4) Spinal cord tissue culture: The dorsal horn of fresh rat lumbar spinal cord was cut into 1-mm sections with a sharp blade under sterile conditions and maintained in culture in 12-well plates with DMEM and 10% FBS. After 2 days, 100 μM NMDA was added to 6 wells. The other 6 wells were used as controls. The culture was maintained for 24 hr, and the tissue subjected to RNA and protein extraction as well as RT-PCR and Western blotting to examine alterations of agrin gene and protein, as described in this Example.
as §3, with “The following day goat anti-mouse secondary antibody conjugated to Alexa Fluor680 (1:5000, Molecular Probe) was added to the membrane and incubated for 1 hr at room temperature. The samples were washed three times with TBS buffer (Tris Buffered Saline, DAKO, Carpinteria, Calif.) between steps.” left out, “Nebr.). […]” for “Nebr.).”

agrin mRNA = assay: Rat lumbar spinal tissue culture, agrin mRNA by RT-PCR; type: cell-based; settings: for agrin gene expression: 24 h
Description: as §4
Following peripheral nerve injury, large amounts of glutamate, aspartate, and substance P are released into the extracellular space and excite post-synaptic neurons. […] Exogenous NMDA and substance P (“SP”) were used to culture rat lumbar spinal tissue. The normal dorsal part of lumbar spinal cord was cut into 0.5 mm slices and cultured in DMEM plus 10% FBS serum. After culturing for 24 h, the slices were treated with 100 μM NMDA with or without 10 nM substance P. Control slices were not treated with NMDA or substance P. Each group (experimental and control) had six samples. At 6 h and 24 h after treatment, the slices were subjected to RNA and protein extraction. The extractions were then assayed for agrin mRNA and agrin protein as described above in Examples 1-3. Briefly, the agrin mRNA was assayed using RT-PCR using C-terminal agrin primers for 36 cycles; and the agrin protein was assayed using Western Blot.

[6] = system: transitory inflammatory-induced hyperalgesia; settings: pain model with transitory inflammatory-induced hyperalgesia; cited from earlier work
[7] = Solubility for intrathecal injection; type: physicochemical
Description: as §1

Compound: C[C@@H]([C@@H](O)c1ccc(O)cc1)N1CCC(O)(c2ccccc2)CC1 [(1S,2S)-1-(4-hydroxy-phynel)-2-(4-hydroxy-4-phenyl-piperidino)-1-propanol]
- effect on hyperalgesia/allodynia (NMDA receptors; animal models of neuropathic pain): depressed hyperalgesia/allodynia at a dose devoid of adverse effects

Compound: CC(=O)Nc1ccc(O)cc1 [APAP, acetaminophen, reference compound]
- lethality (rodents): killed all the animals
- effect on tactile allodynia (paw withdrawal threshold) ([1]; pre-emptive intrathecal 100 nmol in 10 μl saline immediately prior to CCI, 0, 3, 7 days): showed an effect similar to SCP-1
- effect on paw withdrawal threshold at 7 days ([1]; pre-emptive intrathecal 100 nmol prior to CCI, 7 days after injury): sharply reduced
- time after injection at which the effect began to diminish ([2]; intrathecal 100 nmol): 90 min
- duration of effect on withdrawal threshold ([2]; intrathecal 100 nmol in 10 μl): short duration
- effect on paw-withdrawal threshold [2]: a less robust effect on the withdrawal threshold
- maximum withdrawal threshold ([2]; intrathecal, same dose and volume (100 nmol in 10 μl)): about 22 g
- increase in paw-withdrawal latency (thermal hyperalgesia) ([3]; intrathecal 100 nmol in 10 μl, CCI (Bennett) rat model): a similar effect on latency
- effect on paw-withdrawal latency at 120 min post injection ([3]; intrathecal 100 nmol, 120 min): dropped to the initial latency value
- agrin protein (agrin protein [4]; pre-emptive intrathecal injection prior to CCI, 3 and 7 days): did not prevent the drop in agrin protein

Compound: C[C@]12N[C@H](Cc3ccccc31)c1ccccc12 [MK801]
- effect on agrin protein decrease from NMDA receptor over-stimulation (agrin protein [5]; 20 μM MK801 with either NMDA alone or NMDA plus substance P, 24 hr): blocked agrin decrease
- effect on hyperalgesia and allodynia (NMDA receptors): suppress hyperalgesia and allodynia
- doses at which the effects are seen (NMDA receptors): only be seen at doses that induce ataxia

Compound: CN[C@H](CC(=O)O)C(=O)O [NMDA]
- agrin protein (agrin protein [5]; 100 μM NMDA, 24 h): a decrease in agrin
- agrin mRNA (agrin mRNA; 100 μM NMDA with or without SP, 6 h): No decrease in agrin mRNA
- agrin gene expression (agrin mRNA; 100 μM NMDA, compared to controls without NMDA): visually less

Compound: O=C(CNS(=O)(=O)c1ccccc1C(=O)O)Nc1ccc(O)cc1 [SCP-M1]
- analgesic activity [6]: high analgesic activity
- solubility compared with SCP-1 [7]: very similar to that of SCP-1
- solubility in 45% 2-hydroxypropyl-α-cyclodextrin in saline ([7]; 45% cyclodextrin in saline, 10 mM solutions prepared): can dissolve them
- solubility in water ([7]; water): do not dissolve readily in water
- effect on paw-withdrawal threshold [2]: a faster response and a faster return to normal values for withdrawal thresholds than was seen in SCP-1

Compound: CNC1(c2ccccc2Cl)CCCCC1=O (stereo not drawn) [ketamine]
- effect on hyperalgesia and allodynia (NMDA receptors): suppress hyperalgesia and allodynia
- doses at which the effects are seen (NMDA receptors): only be seen at doses that induce ataxia

Compound: SP: substance P, increases NMDA receptor excitability by removing magnesium blocking (RPKPQQFFGLM-NH2; ends and bridges not checked; UniProt P20366 58-68, looked up)
- agrin gene expression (agrin mRNA; 10 nM substance P added to 100 μM NMDA): enhanced the down-regulation by NMDA

Compound: agrin siRNA: siRNA for C-terminal agrin, position 5994; sense GCCCUCAAAGUCCUGUGAUtt (SEQ ID NO: 11), antisense SEQ ID NO: 12 (sense GCCCUCAAAGUCCUGUGAUTT; antisense AUCACAGGACUUUGAGGGCTT; chemistry not given here)
- effect on the SCP-1 effect on withdrawal threshold ([1]; siRNA 100 nM intrathecally at 5 μl/hour continuously after bolus injection of SCP-1): antagonized the SCP-1 and inhibited the effect on withdrawal threshold
- agrin protein level when injected with SCP-1 (agrin protein [4]; siRNA plus SCP-1, allodynic rats, 2 h post-injection): did not return to normal levels
